Measurements taken from PMC9298260, “An Immunomodulatory Peptide Dendrimer Inspired from Glatiramer Acetate” (Angewandte Chemie (International Ed. in English), 2021).

Key:
Assay in all cases: IL-1Ra release from human primary monocytes, immunoassay (ELISA) of supernatants
Type in all cases: cell-based
[1] = tested on: IL-1Ra release from human primary monocytes; parameters: key: +: Ability to induce IL-1Ra on primary monocytes after 48 h of incubation; Ability to induce IL-1Ra on primary monocytes after 48 h of incubation; details: for IL-1Ra: ability to induce IL-1Ra on primary monocytes after 48 h of incubation, class + / -; for Act. (ability to induce IL-1Ra): primary monocytes, 48 h
Procedure: (§1) As an activity screen we focused on interleukin‐1 receptor antagonist (IL‐1Ra), a cytokine released by circulating antigen presenting cells (APC) in response to GA.[15, 35] […] To test our dendrimers, we quantified by immunoassay the release of IL‐1Ra from human primary monocytes of healthy donors, an easily accessible type of APC, stimulated or not by addition of lipopolysaccharide (LPS), which in our hands provided a reliable read‐out.[15] We tested at defined weight/volume (25 and 50 μg mL^−1 compound as typically reported for GA)[15, 35] to account for a possible activity increase with MW as often observed with dendrimers when using molarity. In the initial screen the levels of secreted IL‐1Ra remained below 1 ng mL^−1 for all the smaller test compounds as well as with the linear peptide analogs of GA.
(§2) Figure 2 Cytokine level of IL‐1Ra in supernatants of primary human monocytes of healthy donors treated with peptide dendrimers, evaluated by ELISA (bars, left vertical axis) and mRNA levels (▴, right vertical axis). […] For mRNA levels evaluation, 2×10^6 cells 3 mL^−1 in 6 well plates were incubated with 50 μg mL^−1 dendrimer or GA for 18 h. […]
(§3) Enzyme-linked immunosorbent assay (ELISA)
(§4) Monocytes (5×10^4 cells/200 μL well; 96-well plates) were preincubated for 1 h with or without compounds in RPMI-1640 medium supplemented with 10% heat-inactivated FBS, 50 μg/mL streptomycin, 50 U/mL penicillin, 2 mM L-glutamine, and 5 μg/mL polymyxin B sulfate and then cultured for 48 h in the presence or absence of LPS (100 ng/mL) (2). The production of IL-1Ra was measured in culture supernatants by commercially available enzyme immunoassay according to manufacture protocol.
(§5) Figure S2. Cytokine level of IL-1Ra in supernatants of monocytes for active dendrimers and analogues evaluated by ELISA assay on primary human monocytes of healthy donors. 5×10^4 cells/200 µL in 96 well plates, were incubated with dendrimers or GA as a control for 48 h in presence or absence of LPS (100 ng/mL), in a range of concentrations (50-25 µg/mL) (mean ± SD, n = 2 different experiments). The results are present as the difference between each sample and the non-treated sample to take into account the difference between base line for each donor.
(§6) Figure S3. Cytokine level of IL-1Ra in supernatants of monocytes for active dendrimers and […]
(§7) presence or absence of LPS (100 ng/mL), in a range of concentrations (100-12.5 µg/mL) (mean ± SD, n = 3 different experiments). […]

[2] = tested on: IL-1Ra release from human primary monocytes; details: primary human monocytes of healthy donors, 25 and 50 μg mL^−1, 48 h
Procedure: as §1, §2, §3, §4, §5, §6, §7

[3] = tested on: IL-1Ra release from human primary monocytes; parameters: key: +: Ability to induce IL‐1Ra on primary monocytes after 48 h of incubation in the presence of 25–50 μg mL^−1 compound; Ability to induce IL‐1Ra on primary monocytes after 48 h of incubation in the presence of 25–50 μg mL^−1 compound; details: for Act. (ability to induce IL-1Ra): Table 1, 48 h, 25–50 μg mL^−1 compound; for IL-1Ra: 48 h
Procedure: as §1, §2, §3, §4, §5, §6, §7

| Substance | IL-1Ra [1] | IL-1Ra release activity (in words) [2] | Act. (ability to induce IL-1Ra) ([1]; Table S2 analogs of 1 and 4) | Act. (ability to induce IL-1Ra) [3] | IL-1Ra ([3]; supplement s001.csv) | IL-1Ra ([3]; supplement s003.zip SMILES csv) | Act. (ability to induce IL-1Ra) ([1]; Table S1 initial library) |
| --- | --- | --- | --- | --- | --- | --- | --- |
| (AK)4(KAEAKAKE)2KKEYEYC(Coumarin)A-NH2 [26Coum] | - |  |  |  |  |  |  |
| (AK)4(KAEAKAKE)2KKEYEYCA-NH2 [compound 26] | - |  |  |  |  |  |  |
| (AK)8(KAK)4(KEKA)2KAKEAYCA-NH2 [compound 34] | + | preserved | + | + | + | + |  |
| (AK)8(KAKAKY)4(KAKEYEY)2KAKEYEY-NH2 [compound 5] | - |  |  | − |  |  | - |
| (AcAKA)4(KEK)2KYEY-OH [Ac11] | - |  |  |  |  |  | - |
| (AcAKA)4(KEY)2KYKK-NH2 [Ac15] | - |  |  |  |  |  | - |
| (AcAKA)4(KKEY)2KE-OH [Ac10] | - |  |  |  |  |  | - |
| (AcAKA)8(KYEK)4(KEKA)2KAKY-OH [Ac3] | - |  |  |  |  |  | - |
| (AcAKE)4(KAYA)2KKKK-NH2 [Ac16] | - |  |  |  |  |  | - |
| (AcAKE)4(KKAY)2KYKY-NH2 [Ac22] | - |  |  |  |  |  |  |
| (AcAYK)4(KE)2KKAA-OH [Ac9] | - |  |  |  |  |  | - |
| (AcKA)8(KAK)4(KEKA)2KAKEAYCA-NH2 [Ac1] | - | abolished |  | − |  |  | - |
| (AcKA)8(KKKAK)4(KEKA)2KAKEAYCA-NH2 [Ac36] | + | preserved | + | + | + | + |  |
| (AcKAA)4(KYYE)2KAY-NH2 [Ac19] | - |  |  |  |  |  |  |
| (AcKAE)4(KAEK)2KYYA-OH [Ac18] | - |  |  |  |  |  | - |
| (AcKAK)4(KAEY)2KAEA-OH [Ac20] | - |  |  |  |  |  |  |
| (AcKEAKY)4(KKYEA)2KEKAYKA-NH2 [Ac27] | - |  |  |  |  |  |  |
| (AcKYA)4(KEA)2KKKA-OH [Ac14] | - |  |  |  |  |  | - |
| (ClAcAKA)4(KEK)2KYEY-OH [ClAc11] | - |  |  |  |  |  | - |
| (ClAcAKA)4(KKEY)2KE-OH [ClAc10] | - |  |  |  |  |  | - |
| (ClAcAKA)8(KYEK)4(KEKA)2KAKY-OH [ClAc3] | - |  |  |  |  |  | - |
| (ClAcAKE)4(KKAY)2KYKY-NH2 [ClAc22] | - |  |  |  |  |  |  |
| (ClAcK)4(KAYE)2KAKYAEA-NH2) [ClAc13] | - |  |  |  |  |  | - |
| (ClAcK)4(KEAKAKEY)2KAKEYEY-OH [ClAc25] | - |  |  |  |  |  |  |

| Substance | IL-1Ra [1] | IL-1Ra release activity (in words) [2] | Act. (ability to induce IL-1Ra) ([1]; Table S2 analogs of 1 and 4) | Act. (ability to induce IL-1Ra) [3] | IL-1Ra ([3]; supplement s001.csv) | IL-1Ra ([3]; supplement s003.zip SMILES csv) | Act. (ability to induce IL-1Ra) ([1]; Table S1 initial library) |
| --- | --- | --- | --- | --- | --- | --- | --- |
| (ClAcKA)4(KAYE)2KK-OH [ClAc6] | - |  |  |  |  |  | - |
| (ClAcKA)4(KEYA)2KKAK-OH [ClAc7] | - |  |  |  |  |  | - |
| (ClAcKAA)4(KYYE)2KAY-NH2 [AcCl19] | - |  |  |  |  |  |  |
| (ClAcKAE)4(KAEK)2KYYA-OH [ClAc18] | - |  |  |  |  |  | - |
| (ClAcKEAKY)4(KKYEA)2KEKAYKA-NH2 [ClAc27] | - |  |  |  |  |  |  |
| (ClAcKYA)4(KEA)2KKKA-OH [ClAc14] | - |  |  |  |  |  | - |
| (FumAKA)4(KEY)2KYKK-NH2 [Fum15] | - |  |  |  |  |  | - |
| (FumAKE)4(KAYA)2KKKK-NH2 [Fum16] | - |  |  |  |  |  | - |
| (FumKA)8(KAK)4(KEKA)2KAKEAYCA-NH2 [Fum1] | - | abolished |  |  |  |  | - |
| (FumKA)8(KKAKE)4(KYKAKA)2KAYKKA-OH [Fum4] | - | abolished |  |  |  |  | - |
| (FumKA)8(KKKAK)4(KEKA)2KAKEAYCA-NH2 [Fum36] | + | preserved | + | + | + | + |  |
| (K)4(KAYAEY)2KAKAEYA-NH2 [compound 17] | - |  |  |  |  |  | - |
| (KA)8(KAK)4(KEKA)2KAKEAYC(Fluo)A-NH2 [1Fl, analog of 1 bearing a fluorescein label at the dendrimer core] | + |  | + | + | + | + |  |
| (KA)8(KAK)4(KEKA)2KAKEAYCA-NH2 [sr-1] | + | as active as the pure L‐enantiomers | + | + | + | + |  |
| (KA)8(KAK)4(KEKA)2KAKEAYCA-NH2)2 (disulfide) [1-1, disulfide bridged dimer of 1] | + | active | + | + | + | + |  |
| (KA)8(KKAKE)4(KYKAKA)2KAYKKA-OH [sr-4] | + | as active as the pure L‐enantiomers | + | + | + | + |  |
| (KA)8(KKKAK)4(KEKA)2KAKEAYCA-NH2 [compound 36] | - | preserved | + | + | + |  |  |
| (KAA)4(KEY)2KAKEYEYA-NH2 [compound 24] | - |  |  |  |  |  |  |
| (KAA)8(KKAKAK)4(KAAKKY)2KEKAKCA-OH [compound 30] | - |  |  |  |  |  |  |
| (KAEKAYA)4(KEKYAKA)2KEKYKA-NH2 [compound 2] | - |  |  | − |  |  | - |
| (KAK)4(KEKA)2KAKEAYCA-NH2 [compound 33] | - |  | - | − |  |  |  |
| (KK)8(KAK)4(KEKA)2KAKEAYCA-NH2 [compound 35] | + | preserved | + | + | + | + |  |
| (KYA)4(KAE)2KAEYKCA-NH2 [compound 23] | - |  |  |  |  |  |  |
| (YKAKAKY)4(KEAKAKY)2KAKEYEY-OH [compound 29] | - |  |  |  |  |  |  |
